In publication PMC11284789, “Biomimetic Analogues of the Desferrioxamine E Siderophore for PET Imaging of Invasive Aspergillosis: Targeting Properties and Species Specificity” (Journal of Medicinal Chemistry, 2024):
Where two headings read alike, the source gives them in different places.

Legend:
[1] = test system: iron-starved (Fe(−)) A. fumigatus cultures; test: Short-term in vitro uptake of 68Ga-labeled siderophores; format: cell-based, Aspergillus fumigatus; settings: paired t test, p < 0.01
Protocol: To investigate the short-term active transport of ^68Ga-labeled FOXE analogues by A. fumigatus, iron-starved (Fe(−)) cultures were used (Figure 3). As a control, the same cultures were incubated with Fe(III)-FOXE beforehand to saturate and therefore block Sit1-mediated activity. A decrease in uptake upon Fe(III)-FOXE blocking underlines specific uptake by the same transporters recognizing FOXE.
Figure 3 Uptake of ^68Ga-labeled FOXE analogues by Fe(III)-FOXE-blocked and -unblocked iron-starved (Fe(−)) A. fumigatus cultures after 45 min of incubation. * indicates significant difference of blocking compared with nonblocking (mean of three independent experiments, paired t test, p < 0.01).
Uptake assays were performed in both iron-deficient and iron-sufficient A. fumigatus cultures as described previously.[55] The uptake of each [^68Ga]Ga(III)-FOXE derivative was expressed as the ratio to [^68Ga]Ga(III)-FOXE uptake from the same experiment in order to normalize uptake variations between different fungal cultures. The mean values of three different assays were used to quantitatively compare the difference in uptake between the compounds.

[2] = parameters: method as in earlier work; settings: cited from earlier work; for logβ Ga(III)L: T = 25 °C, I = 0.1 M NaClO4, M:L 1:1; for pGa(III): calculated for [L] = 1 × 10−4 [M] = 1 × 10−5 at pH 7.4
[3] = cited from earlier work
[4] = test system: A. fumigatus mutant strain ΔsidAΔftrA; test: Growth promotion assay (siderophore utilization), ΔsidAΔftrA; format: cell-based, Aspergillus fumigatus; settings: siderophores in ferri-form, 0.1, 1.0, 10 and 50 μM; 48 h at 37 °C
Protocol: (§1) In order to investigate whether A. fumigatus is able to utilize the artificial FOX analogues in the iron form as an iron source, growth promotion assays were performed (Figure 2) using two A. fumigatus mutants. The mutant strain ΔsidAΔftrA is able to grow only in the presence of utilizable siderophores or ferrous iron concentration >3 mM.[10],[44] The second mutant, ΔsidAΔftrAΔsit1, additionally lacks the siderophore transporter Sit1, which exclusively mediates the uptake of ferrioxamine-type siderophores and is additionally involved in the uptake of ferrichrome-type and coprogen-type siderophores but not of FsC or TAFC.[19],[20] For growth promotion analysis, the mutants were spotted on iron-lacking media supplemented with different concentrations of siderophores. Control experiments confirmed the expected growth pattern: growth of ΔsidAΔftrA but not of ΔsidAΔftrAΔsit1 was promoted by supplementation with ferric FOXE; both mutant strains were able to grow in the presence of TAFC as uptake of this siderophore depends on MirB but not on Sit1; both mutant strains lacked growth without siderophore supplementation, and uninoculated media also lacked fungal growth. […] The utilization of iron from all artificial ferrioxamine analogues was mediated by Sit1 like that of natural ferrioxamine-type siderophores.[20]
Figure 2 Growth promotion analysis of FOX analogues. 10^4 conidia of A. fumigatus mutant strains ΔsidAΔftrA (A) and ΔsidAΔftrAΔsit1 (B) were point-inoculated for every condition. All natural and artificial siderophores were tested in the ferri-form in the concentrations 0.1, 1.0, 10, and 50 μM. As controls, TAFC, which is taken up in a Sit1-independent manner, and FOXE were included. Moreover, controls without siderophore supplementation with (+) or without (−) inoculation of conidia were included. Greenish coloration of the fungal colonies indicates asexual sporulation. Pictures were taken after 48 h of incubation at 37 °C. […]

[5] = test system: A. fumigatus mutant strain ΔsidAΔftrAΔsit1; test: Growth promotion assay (siderophore utilization), Sit1-lacking ΔsidAΔftrAΔsit1; format: cell-based, Aspergillus fumigatus; settings: siderophores in ferri-form, 0.1, 1.0, 10 and 50 μM; 48 h at 37 °C
Protocol: as §1
Figure 2 Growth promotion analysis of FOX analogues. […]

[6] = test system: S. aureus cultures; parameters: method as in PMID 34783539; settings: 68Ga-labeled, iron-deficient cultures; cited from earlier work

Compound	difference between Fe(III)-FOXE-blocked and -unblocked uptake [1]	logβ Ga(III)L [2]	pGa(III) [2]	logβ Fe(III)L ([3]; T = 25 °C, I = 0.1 M NaClO4, M:L 1:1)	pFe(III) ([3]; calculated for [L] = 1 × 10−4 [M] = 1 × 10−5 at pH 7.4)	growth promotion of ΔsidAΔftrA [4]	growth of ΔsidAΔftrAΔsit1 (Sit1 dependence) [5]	uptake (radioactivity level) in S. aureus cultures [6]	logβ Fe(III)L ([3]; ref Reference2)
O=C1CCN(O)C(=O)CCNC(=O)CCN(O)C(=O)CCNC(=O)CCN(O)C(=O)CCN1 [FOX 2–2]	statistically insignificant	26.44(5)	21.4	25.92(8)	21.5	very limited growth promotion only at the highest tested concentration of 50 μM			
O=C1CCC(=O)N(O)CCCCCNC(=O)CCC(=O)N(O)CCCCCNC(=O)CCC(=O)N(O)CCCCCN1 [FOXE, ferrioxamine E]		29.79(1)	25.2			promoted	not	high radioactivity levels	32.21(4)
triacetylfusarinine C [TAFC]						able to grow	able to grow		
